Experimental findings from patent US20250197372A1 (priority 2020, published 2025) are described below.

Assay type in all cases: biochemical
For experiment [1], the target named is T1, recombinant alpha-glucosidase II (murine full-length glucosidase II, alpha and beta subunits, Glu 2) (Mus musculus, UniProt Q8BHN3).
T1 construct: made in house; host or cells: HEK-293T cells transduced with BacMam viruses (75% alpha, 25% beta); protein harvested from culture supernatant
The experiment can be described thus: Alpha-glucosidase II assay (4-methylumbelliferyl-alpha-D-pyranoside substrate, fluorescence). Particulars: Glucosidase 2; read-out: Glu2 IC50.

Experiment [2] deals with T2, recombinant human GBA (beta-glucocerebrosidase) (Homo sapiens, UniProt P04062).
T2 sequence (P04062 40-536): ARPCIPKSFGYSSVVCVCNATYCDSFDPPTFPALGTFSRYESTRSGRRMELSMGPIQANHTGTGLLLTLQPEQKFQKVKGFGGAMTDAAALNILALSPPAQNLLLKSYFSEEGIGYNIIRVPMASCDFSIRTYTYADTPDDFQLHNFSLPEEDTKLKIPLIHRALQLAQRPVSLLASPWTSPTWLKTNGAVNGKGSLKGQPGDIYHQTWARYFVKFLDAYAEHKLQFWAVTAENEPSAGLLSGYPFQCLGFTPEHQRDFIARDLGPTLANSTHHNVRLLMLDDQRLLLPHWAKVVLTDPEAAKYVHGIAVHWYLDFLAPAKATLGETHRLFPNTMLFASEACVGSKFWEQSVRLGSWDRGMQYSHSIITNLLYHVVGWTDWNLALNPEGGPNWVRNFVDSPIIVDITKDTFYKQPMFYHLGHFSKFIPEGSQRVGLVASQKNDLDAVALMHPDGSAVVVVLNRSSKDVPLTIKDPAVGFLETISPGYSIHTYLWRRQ
Put plainly: Beta-glucocerebrosidase (GBA, glucosylceramidase) assay (4-methylumbelliferyl-beta-D-pyranoside substrate, fluorescence). The gist of the method: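 IC50 by four-parameter fit of percent inhibition, with product fluorescence (365/440 nm) read after a glycine/NaOH pH 10 stop. Compound and commercial recombinant human enzyme were incubated 60 min at 37 °C before a further 60 min at 37 °C with 4-methylumbelliferyl-beta-D-pyranoside substrate.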

Experiment [3] addresses rat sucrase (partially purified alpha-glucosidase from intestinal rat powder) (Rattus norvegicus, UniProt P23739). Put plainly: Intestinal alpha-glucosidase assay, sucrose substrate (Glucose GO Kit). The gist of the method: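 Glucose release is the read-out: compounds at multiple dilutions are first held with partially purified rat intestinal alpha-glucosidase for 60 min at 37 °C, after which maltose or sucrose substrate reacts for 30 min at 37 °C before a 5 min 90 °C stop. IC50 comes from a four-parameter logistic fit.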

SMILES strings stand for the structures.

T1 sequence (O08795 15-521): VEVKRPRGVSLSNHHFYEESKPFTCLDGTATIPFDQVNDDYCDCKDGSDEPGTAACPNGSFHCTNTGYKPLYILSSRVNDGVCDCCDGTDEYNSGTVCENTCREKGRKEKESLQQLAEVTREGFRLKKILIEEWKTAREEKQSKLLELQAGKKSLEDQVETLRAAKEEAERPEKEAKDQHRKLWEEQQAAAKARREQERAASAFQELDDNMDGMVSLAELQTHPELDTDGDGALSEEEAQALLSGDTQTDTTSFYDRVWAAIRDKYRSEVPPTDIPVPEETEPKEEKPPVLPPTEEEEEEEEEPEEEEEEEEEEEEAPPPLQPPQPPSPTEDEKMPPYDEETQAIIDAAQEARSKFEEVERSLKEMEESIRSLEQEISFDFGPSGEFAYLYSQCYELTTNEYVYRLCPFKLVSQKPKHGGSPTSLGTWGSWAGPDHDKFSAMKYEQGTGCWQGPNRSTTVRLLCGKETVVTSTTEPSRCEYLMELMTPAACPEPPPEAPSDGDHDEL
T1 sequence (Q8BHN3 33-944): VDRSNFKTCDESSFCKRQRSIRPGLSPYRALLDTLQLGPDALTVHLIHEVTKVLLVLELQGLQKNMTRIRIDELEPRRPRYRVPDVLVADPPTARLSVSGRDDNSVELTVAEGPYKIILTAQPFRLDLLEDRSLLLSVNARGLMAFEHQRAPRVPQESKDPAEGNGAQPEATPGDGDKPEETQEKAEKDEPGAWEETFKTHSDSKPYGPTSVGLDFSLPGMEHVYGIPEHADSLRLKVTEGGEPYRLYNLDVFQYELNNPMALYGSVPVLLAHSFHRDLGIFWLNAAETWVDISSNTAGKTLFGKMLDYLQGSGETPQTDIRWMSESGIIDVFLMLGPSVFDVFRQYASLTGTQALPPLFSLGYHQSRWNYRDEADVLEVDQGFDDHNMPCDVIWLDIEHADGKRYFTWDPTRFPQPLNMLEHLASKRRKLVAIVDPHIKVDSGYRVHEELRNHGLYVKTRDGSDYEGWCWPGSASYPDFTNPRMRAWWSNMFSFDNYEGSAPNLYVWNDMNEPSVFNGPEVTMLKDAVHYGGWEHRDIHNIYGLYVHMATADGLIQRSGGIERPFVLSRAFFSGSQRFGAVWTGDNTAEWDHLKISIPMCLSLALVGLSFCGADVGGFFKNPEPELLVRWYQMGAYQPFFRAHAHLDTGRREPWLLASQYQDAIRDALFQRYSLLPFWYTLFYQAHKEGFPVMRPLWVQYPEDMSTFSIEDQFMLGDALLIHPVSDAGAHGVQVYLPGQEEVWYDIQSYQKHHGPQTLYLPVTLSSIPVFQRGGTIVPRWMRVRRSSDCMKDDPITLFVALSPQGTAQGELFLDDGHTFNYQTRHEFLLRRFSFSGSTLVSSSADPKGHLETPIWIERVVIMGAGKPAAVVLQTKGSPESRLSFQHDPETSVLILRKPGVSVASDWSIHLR
Sequence of rat sucrase (partially purified alpha-glucosidase from intestinal rat powder) (P23739 whole entry): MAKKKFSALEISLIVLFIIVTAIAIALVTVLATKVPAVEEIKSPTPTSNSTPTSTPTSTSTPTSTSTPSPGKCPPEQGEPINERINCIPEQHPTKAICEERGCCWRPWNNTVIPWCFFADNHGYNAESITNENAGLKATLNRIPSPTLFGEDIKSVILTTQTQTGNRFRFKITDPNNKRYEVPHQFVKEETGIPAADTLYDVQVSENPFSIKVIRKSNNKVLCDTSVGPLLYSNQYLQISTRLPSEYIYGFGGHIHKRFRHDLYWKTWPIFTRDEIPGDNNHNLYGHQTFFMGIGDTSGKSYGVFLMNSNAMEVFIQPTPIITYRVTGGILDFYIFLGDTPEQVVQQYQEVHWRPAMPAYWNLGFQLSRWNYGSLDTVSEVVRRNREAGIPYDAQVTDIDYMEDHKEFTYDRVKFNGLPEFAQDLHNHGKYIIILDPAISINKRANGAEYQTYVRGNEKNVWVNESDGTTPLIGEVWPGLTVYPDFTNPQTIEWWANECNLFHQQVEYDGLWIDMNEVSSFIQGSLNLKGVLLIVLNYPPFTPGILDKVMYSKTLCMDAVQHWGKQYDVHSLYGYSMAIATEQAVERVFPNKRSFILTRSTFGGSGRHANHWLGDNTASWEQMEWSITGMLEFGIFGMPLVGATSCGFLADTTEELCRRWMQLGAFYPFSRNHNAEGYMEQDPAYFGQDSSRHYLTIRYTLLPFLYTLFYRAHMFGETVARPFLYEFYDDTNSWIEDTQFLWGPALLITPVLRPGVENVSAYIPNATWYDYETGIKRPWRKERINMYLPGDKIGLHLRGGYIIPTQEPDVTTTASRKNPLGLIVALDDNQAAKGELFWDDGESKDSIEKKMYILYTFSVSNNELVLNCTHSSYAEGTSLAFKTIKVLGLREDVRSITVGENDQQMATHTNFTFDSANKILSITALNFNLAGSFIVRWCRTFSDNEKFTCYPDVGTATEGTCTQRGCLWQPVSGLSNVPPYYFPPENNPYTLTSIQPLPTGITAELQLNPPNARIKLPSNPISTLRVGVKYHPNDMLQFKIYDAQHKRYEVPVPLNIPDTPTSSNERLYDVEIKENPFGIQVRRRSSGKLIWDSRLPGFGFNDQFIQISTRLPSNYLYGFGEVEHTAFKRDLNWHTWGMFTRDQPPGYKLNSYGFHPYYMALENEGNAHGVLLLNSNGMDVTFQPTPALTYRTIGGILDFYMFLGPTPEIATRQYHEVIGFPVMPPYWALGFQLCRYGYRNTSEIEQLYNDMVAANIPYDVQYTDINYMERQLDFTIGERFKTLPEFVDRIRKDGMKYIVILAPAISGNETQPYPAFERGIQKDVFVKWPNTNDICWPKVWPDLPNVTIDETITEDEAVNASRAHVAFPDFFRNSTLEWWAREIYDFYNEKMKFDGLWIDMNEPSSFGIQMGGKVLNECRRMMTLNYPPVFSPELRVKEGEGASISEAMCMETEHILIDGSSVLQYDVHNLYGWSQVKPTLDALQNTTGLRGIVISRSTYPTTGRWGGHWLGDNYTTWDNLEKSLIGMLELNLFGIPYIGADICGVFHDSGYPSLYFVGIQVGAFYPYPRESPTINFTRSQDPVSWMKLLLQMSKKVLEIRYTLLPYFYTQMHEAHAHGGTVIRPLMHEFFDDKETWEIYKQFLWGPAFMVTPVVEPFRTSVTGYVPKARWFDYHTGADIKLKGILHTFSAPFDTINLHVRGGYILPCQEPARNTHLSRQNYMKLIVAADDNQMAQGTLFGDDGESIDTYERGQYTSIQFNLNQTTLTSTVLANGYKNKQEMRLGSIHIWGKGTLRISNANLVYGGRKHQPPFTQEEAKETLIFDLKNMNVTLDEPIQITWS

In general, IC50 refers to the concentration that inhibits the measured activity by half. As for `CN(C)Cc1ccc(NCCCCCCN2C[C@H](O)[C@@H](O)[C@H](O)[C@H]2CO)c(F)c1` [Compound 1236, (2R,3R,4R,5S)-1-[6-({4-[(dimethylamino)methyl]-2-fluorophenyl}amino)hexyl]-2-(hydroxymethyl)piperidine-3,4,5-triol], the figures for the concentration for half-maximal inhibition (IC50) in experiment [1], in experiment [2] and in experiment [3] were 39 nM, 4630 nM and 254 nM, respectively.

As for `Nc1ccc(NCCc2ccccc2CCN2C[C@H](O)[C@@H](O)[C@H](O)[C@H]2CO)c([N+](=O)[O-])c1Cl` [Compound 1239, (2R,3R,4R,5S)-1-[2-(2-{2-[(4-amino-3-chloro-2-nitrophenyl)amino]ethyl}phenyl)ethyl]-2-(hydroxymethyl)piperidine-3,4,5-triol], the values for the 50% inhibitory concentration (IC50) in experiment [1], in experiment [2] and in experiment [3] were 108 nM, 114 nM and 294 nM, respectively.

As for `[N-]=[N+]=Nc1ccc(NCCc2cccc(CCN3C[C@H](O)[C@@H](O)[C@H](O)[C@H]3CO)c2)c([N+](=O)[O-])c1` [Compound 1240, (2R,3R,4R,5S)-1-[2-(3-{2-[(4-azido-2-nitrophenyl)amino]ethyl}phenyl)ethyl]-2-(hydroxymethyl)piperidine-3,4,5-triol], the figures for the IC50 in experiment [1], in experiment [2] and in experiment [3] were 45 nM, 496 nM and 318 nM, respectively.

`CN(C)Cc1ccc(NCCCCCCN2C[C@H](O)[C@@H](O)[C@H](O)[C@H]2CO)c(C(=O)O)c1` [Compound 1245, 5-[(dimethylamino)methyl]-2-({6-[(2R,3R,4R,5S)-3,4,5-trihydroxy-2-(hydroxymethyl)piperidin-1-yl]hexyl}amino)benzoic acid]: the half-maximal inhibitory concentration (IC50) in experiment [1] worked out at 51 nM; in experiment [2] it was 56000 nM; in experiment [3], 120 nM.

On to `Cc1nc(=O)c2cc(-c3ncccn3)ccc2n1CCCCCCN1C[C@H](O)[C@@H](O)[C@H](O)[C@H]1CO` [Compound 1246, 2-methyl-6-(pyrimidin-2-yl)-1-{6-[(2R,3R,4R,5S)-3,4,5-trihydroxy-2-(hydroxymethyl)piperidin-1-yl]hexyl}-1,4-dihydroquinazolin-4-one], for which the results for the half-maximal inhibitory concentration (IC50) in experiment [1], in experiment [2] and in experiment [3] were 4 nM, 21600 nM and over 100000 nM, respectively.

In the case of `CS(C)=NS(=O)(=O)c1cc(-c2ncccn2)ccc1NCCCCCCN1C[C@H](O)[C@@H](O)[C@H](O)[C@H]1CO` [Compound 1247, N-(dimethyl-2-sulfanylidene)-5-(pyrimidin-2-yl)-2-({6-[(2R,3R,4R,5S)-3,4,5-trihydroxy-2-(hydroxymethyl)piperidin-1-yl]hexyl}amino)benzene-1-sulfonamide], the figures for the half-maximal inhibitory concentration (IC50) in experiment [1], in experiment [2] and in experiment [3] were 6 nM, 11800 nM and 216 nM, respectively.

Turning to `[N-]=[N+]=Nc1ccc(NCCc2ccccc2CCN2C[C@H](O)[C@@H](O)[C@H](O)[C@H]2CO)c([N+](=O)[O-])c1` [Compound 1249], the IC50 turned out to be 162 nM in experiment [1], 320 nM in experiment [2] and 1870 nM in experiment [3].

For the compound `N#Cc1ccc(F)cc1NCCCCCCN1C[C@H](O)[C@@H](O)[C@H](O)[C@H]1CO` [Compound 1251, 4-fluoro-2-({6-[(2R,3R,4R,5S)-3,4,5-trihydroxy-2-(hydroxymethyl)piperidin-1-yl]hexyl}amino)benzonitrile], the IC50 was 12 nM in experiment [1], 1410 nM in experiment [2] and 38 nM in experiment [3].

As for `[N-]=[N+]=Nc1ccc(N2CC(OCCN3C[C@H](O)[C@@H](O)[C@H](O)[C@H]3CO)C2)c([N+](=O)[O-])c1` [Compound 1252, (2R,3R,4R,5S)-1-(2-{[1-(4-azido-2-nitrophenyl)azetidin-3-yl]oxy}ethyl)-2-(hydroxymethyl)piperidine-3,4,5-triol], the half-maximal inhibitory concentration (IC50) was 82 nM in experiment [1], 8670 nM in experiment [2] and 80 nM in experiment [3].

Regarding `Nc1ccc(NCCn2cc(CCN3C[C@H](O)[C@@H](O)[C@H](O)[C@H]3CO)nn2)c([N+](=O)[O-])c1Cl` [Compound 1253, (2R,3R,4R,5S)-1-[2-(1-{2-[(4-amino-3-chloro-2-nitrophenyl)amino]ethyl}-1H-1,2,3-triazol-4-yl)ethyl]-2-(hydroxymethyl)piperidine-3,4,5-triol], the IC50 in experiment [1] is 225 nM; in experiment [2], over 100000 nM; in experiment [3] it was 3440 nM.

For `[N-]=[N+]=Nc1ccc(N2CCN(CCN3C[C@H](O)[C@@H](O)[C@H](O)[C@H]3CO)CC2)c([N+](=O)[O-])c1` [Compound 1254, (2R,3R,4R,5S)-1-{2-[4-(4-azido-2-nitrophenyl)piperazin-1-yl]ethyl}-2-(hydroxymethyl)piperidine-3,4,5-triol], the half-inhibitory concentration (IC50) was 865 nM in experiment [1], over 100000 nM in experiment [2] and 6530 nM in experiment [3].

With `[N-]=[N+]=Nc1ccc(NCCOCCN2C[C@H](O)[C@@H](O)[C@H](O)[C@H]2CO)c([N+](=O)[O-])c1` [Compound 1255, (2R,3R,4R,5S)-1-(2-{2-[(4-azido-2-nitrophenyl)amino]ethoxy}ethyl)-2-(hydroxymethyl)piperidine-3,4,5-triol], the half-inhibitory concentration (IC50) is 29 nM in experiment [1], 3080 nM in experiment [2] and 56 nM in experiment [3].

Take `N#Cc1cc(-c2ncccn2)ccc1NCCCCCCN1C[C@H](O)[C@@H](O)[C@H](O)[C@H]1CO` [Compound 1256, 5-(pyrimidin-2-yl)-2-({6-[(2R,3R,4R,5S)-3,4,5-trihydroxy-2-(hydroxymethyl)piperidin-1-yl]hexyl}amino)benzonitrile]: the results for the IC50 in experiment [1], in experiment [2] and in experiment [3] were 6 nM, 1230 nM and 88 nM, respectively.

Take `CN(C)Cc1ccc(NCCCCCCN2C[C@H](O)[C@@H](O)[C@H](O)[C@H]2CO)c(C#N)c1` [Compound 1257, 5-[(dimethylamino)methyl]-2-({6-[(2R,3R,4R,5S)-3,4,5-trihydroxy-2-(hydroxymethyl)piperidin-1-yl]hexyl}amino)benzonitrile]: the concentration for half-maximal inhibition (IC50) in experiment [1] was found to be 19 nM; in experiment [2], 6530 nM; in experiment [3], 70 nM.

For the compound `OC[C@@H]1[C@@H](O)[C@H](O)[C@@H](O)CN1CCCCCCNc1ccc(-c2ncccn2)cc1C(F)(F)F` [Compound 1258, (2R,3R,4R,5S)-2-(hydroxymethyl)-1-(6-{[4-(pyrimidin-2-yl)-2-(trifluoromethyl)phenyl]amino}hexyl)piperidine-3,4,5-triol], the values for the 50% inhibitory concentration (IC50) in experiment [1], in experiment [2] and in experiment [3] were 31 nM, 1350 nM and 108 nM, respectively.

Take `CN(C)Cc1ccc(NCCCCCCN2C[C@H](O)[C@@H](O)[C@H](O)[C@H]2CO)c(C(F)(F)F)c1` [Compound 1259, (2R,3R,4R,5S)-1-[6-({4-[(dimethylamino)methyl]-2-(trifluoromethyl)phenyl}amino)hexyl]-2-(hydroxymethyl)piperidine-3,4,5-triol]: the IC50 is 72 nM in experiment [1], 1350 nM in experiment [2] and 417 nM in experiment [3].

`NS(=O)(=O)c1cc(-c2ncccn2)ccc1NCCCCCCN1C[C@H](O)[C@@H](O)[C@H](O)[C@H]1CO` [Compound 1265, 5-(pyrimidin-2-yl)-2-({6-[(2R,3R,4R,5S)-3,4,5-trihydroxy-2-(hydroxymethyl)piperidin-1-yl]hexyl}amino)benzene-1-sulfonamide]: the 50% inhibitory concentration (IC50) is 12 nM in experiment [1], 5080 nM in experiment [2] and 98 nM in experiment [3].

On to `NC(=O)c1cc(-c2ncccn2)ccc1NCCCCCCN1C[C@H](O)[C@@H](O)[C@H](O)[C@H]1CO` [Compound 1266, 5-(pyrimidin-2-yl)-2-({6-[(2R,3R,4R,5S)-3,4,5-trihydroxy-2-(hydroxymethyl)piperidin-1-yl]hexyl}amino)benzamide], for which the 50% inhibitory concentration (IC50) in experiment [1] turned out to be 7 nM; in experiment [2], 6340 nM; in experiment [3], 140 nM.

Consider `[N-]=[N+]=Nc1ccc(NCCOC(=O)NCCN2C[C@H](O)[C@@H](O)[C@H](O)[C@H]2CO)c([N+](=O)[O-])c1` [Compound 1268, 2-[(4-azido-2-nitrophenyl)amino]ethyl N-{2-[(2R,3R,4R,5S)-3,4,5-trihydroxy-2-(hydroxymethyl)piperidin-1-yl]ethyl}carbamate], for which the IC50 in experiment [1] worked out at 32 nM; in experiment [2], 1520 nM; in experiment [3], 363 nM.

For the compound `[N-]=[N+]=Nc1ccc(NCCC(O)C(O)CCN2C[C@H](O)[C@@H](O)[C@H](O)[C@H]2CO)c([N+](=O)[O-])c1` (stereo partly drawn) [Compound 1270, (2R,3R,4R,5S)-1-{6-[(4-azido-2-nitrophenyl)amino]-3,4-dihydroxy-hexyl}-2-(hydroxymethyl)piperidine-3,4,5-triol], the IC50 in experiment [1] was 46 nM; in experiment [2], 81 nM; in experiment [3], 350 nM.
